# Source: the supplement of paper PMC10307832
# Tests used:
# Test in all cases: relative viability (nuclei count vs DMSO), 5 days (fraction); higher = more cells survive
# [1] = compound: C[C@@H](C(=O)N[C@@H](C1CCCCC1)C(=O)N2CCC[C@H]2C(=O)N[C@@H]3[C@@H](CC4=CC=CC=C34)OCC#CC#CCO[C@@H]5CC6=CC=CC=C6[C@@H]5NC(=O)[C@@H]7CCCN7C(=O)[C@H](C8CCCCC8)NC(=O)[C@H](C)NC)NC [AZD5582] + COc1cccc2cc(-c3nc([C@H]4CC[C@H](C(=O)O)CC4)n4ncnc(N)c34)[nH]c12 [OSI-027] (partner 0.5 µM)
# Summary of the method: (§1)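 Lung cancer cell lines were seeded in 1536-well plates and dosed by pin tool the next day, with either a single drug or a fixed anchor-drug dose combined with five library-drug doses (not always all listed) spaced in √10 steps. Five days later, one step fixed the cells and stained their nuclei (final 0.05% Triton X-100, 1% formaldehyde, 1 ug/ml Hoechst), and nuclei were counted on 4× images. Relative viability is the nuclei count in treated wells divided by the count in vehicle wells, and each value is the median of duplicate plates.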
# [2] = compound: Cn1nnc2c(C(N)=O)ncn2c1=O [Temozolomide] + CCNC(=O)c1noc(-c2cc(C(C)C)c(O)cc2O)c1-c1ccc(CN2CCOCC2)cc1 [Luminespib] (partner 0.01 µM)
# Summary of the method: as §1
# [3] = compound: Cn1nnc2c(C(N)=O)ncn2c1=O [Temozolomide] + CS(=O)(=O)CCNCc1ccc(-c2ccc3ncnc(Nc4ccc(OCc5cccc(F)c5)c(Cl)c4)c3c2)o1 [Lapatinib] (partner 2 µM)
# Summary of the method: as §1
# [4] = compound: Cn1nnc2c(C(N)=O)ncn2c1=O [Temozolomide] + NC(=O)Nc1cc(-c2cccc(F)c2)sc1C(=O)N[C@H]1CCCNC1 [AZD7762] (partner 0.2 µM)
# Summary of the method: as §1
Cell Line,relative viability ([1]; first compound 0.001581 µM),relative viability ([1]; first compound 0.005 µM),relative viability ([1]; first compound 0.01581 µM),relative viability ([1]; first compound 0.05 µM),relative viability ([2]; first compound 0.6325 µM),relative viability ([2]; first compound 2 µM),relative viability ([2]; first compound 6.325 µM),relative viability ([2]; first compound 20 µM),relative viability ([3]; first compound 0.2 µM),relative viability ([3]; first compound 0.6325 µM),relative viability ([3]; first compound 2 µM),relative viability ([3]; first compound 6.325 µM),relative viability ([3]; first compound 20 µM),relative viability ([4]; first compound 0.6325 µM),relative viability ([4]; first compound 2 µM),relative viability ([4]; first compound 6.325 µM),relative viability ([4]; first compound 20 µM),relative viability ([2]; first compound 0.2 µM),relative viability ([4]; first compound 0.2 µM)
NCI-H358,0.677,0.962,0.821,0.777,0.271,0.485,0.347,0.404,0.538,0.572,0.475,0.439,0.419,0.466,0.533,0.408,0.369,–,–
HCC-827,0.618,0.84,0.761,0.855,0.67,0.638,0.382,0.191,0.207,0.238,0.191,0.191,0.195,0.193,0.196,0.227,0.119,0.52,0.147
NCI-H1355,0.355,0.468,0.288,0.322,0.726,0.764,0.684,0.641,1.06,1.01,0.974,1.02,0.99,0.743,0.716,0.729,0.751,0.814,0.736
NCI-H1793,0.2,0.301,0.212,0.185,0.151,0.309,0.189,0.186,–,0.81,0.608,0.649,0.694,0.414,0.605,0.401,0.411,–,–
CAL-12T,0.239,0.339,0.281,0.323,0.518,0.862,0.115,0.723,–,0.585,0.601,0.607,0.8,0.618,0.628,0.657,0.699,0.27,0.645
NCI-H1993,0.503,0.541,0.547,0.541,0.783,0.764,0.75,0.824,0.879,0.854,0.768,0.865,0.925,0.764,1.03,0.692,0.71,0.856,0.678
EKVX,0.667,0.852,0.687,0.778,0.873,0.888,0.829,0.714,0.189,0.238,0.204,0.242,0.197,0.743,0.681,0.67,0.418,0.364,–
NCI-H1755,0.567,0.673,0.58,0.659,0.5,0.435,0.387,0.304,1.11,1.05,0.966,0.979,0.98,0.396,0.485,0.385,0.638,0.176,0.487
NCI-H460,0.614,0.774,0.642,0.779,0.0362,0.0277,0.0344,0.0293,1.23,1.03,1.12,1,1.24,0.643,0.694,0.611,0.619,0.0394,0.694
HCC-44,0.42,0.39,0.251,0.255,1.05,1.12,0.897,0.966,1.14,1.01,1.11,1.05,0.975,1,1.03,1.11,1.05,0.634,1.03
BEN,0.295,0.301,0.349,0.282,0.323,0.462,0.233,0.228,0.641,0.692,0.66,0.633,0.467,0.616,0.779,0.689,0.678,0.323,0.712
H3255,0.627,0.582,0.514,0.544,0.991,0.946,0.868,0.28,–,0.243,0.233,0.376,0.241,0.839,0.878,0.808,0.257,–,–
A-427,0.341,0.44,0.414,0.31,0.803,0.799,0.618,0.394,0.989,1.09,1.14,0.91,0.487,0.744,0.698,0.472,0.422,0.699,0.758
NCI-H1651,0.667,0.813,–,0.983,0.935,0.578,0.662,1.05,0.969,0.881,0.876,0.754,0.934,0.403,0.478,0.465,0.419,0.956,0.392
EPLC-272H,0.121,–,0.274,0.0867,0.279,0.304,0.707,0.446,1.12,1.05,1.01,0.798,0.858,0.259,0.418,0.217,0.208,0.234,0.194
HCC-15,0.555,0.617,0.504,0.636,0.356,0.314,0.218,0.271,0.91,0.87,0.931,0.829,0.892,1.18,1.29,1.32,1.4,0.347,1.53
NCI-H3122,0.912,0.891,1.02,0.147,0.105,0.125,0.0851,0.0839,1.01,1.03,1.09,0.968,1.04,1.05,1.01,0.922,0.934,0.0795,1.02
NCI-H838,0.339,0.423,–,0.449,0.346,0.35,0.301,0.393,0.998,1.03,1.17,0.945,1.25,0.977,0.961,0.89,0.881,0.357,0.914

Cell Line,relative viability ([1]; first compound 0.001581 µM),relative viability ([1]; first compound 0.005 µM),relative viability ([1]; first compound 0.01581 µM),relative viability ([1]; first compound 0.05 µM),relative viability ([2]; first compound 0.6325 µM),relative viability ([2]; first compound 2 µM),relative viability ([2]; first compound 6.325 µM),relative viability ([2]; first compound 20 µM),relative viability ([3]; first compound 0.2 µM),relative viability ([3]; first compound 0.6325 µM),relative viability ([3]; first compound 2 µM),relative viability ([3]; first compound 6.325 µM),relative viability ([3]; first compound 20 µM),relative viability ([4]; first compound 0.6325 µM),relative viability ([4]; first compound 2 µM),relative viability ([4]; first compound 6.325 µM),relative viability ([4]; first compound 20 µM),relative viability ([2]; first compound 0.2 µM),relative viability ([4]; first compound 0.2 µM)
NCI-H1975,0.688,0.956,0.829,0.9,0.23,0.487,0.131,0.172,1.02,0.946,1.1,0.846,0.987,0.778,0.85,0.679,0.78,–,–
NCI-H23,0.403,0.45,0.245,0.21,0.208,0.229,0.21,0.237,1.22,1.04,1.15,0.969,0.912,0.278,0.282,0.181,0.255,0.223,0.247
HARA,0.414,0.544,0.362,0.307,0.801,0.835,0.788,0.697,0.777,0.721,0.975,0.658,0.732,0.322,0.299,0.395,0.305,0.681,0.358
ABC-1,0.491,0.608,0.375,0.488,0.439,0.788,0.551,0.553,0.93,1.22,1.18,1.16,1.3,0.761,0.761,0.762,0.763,0.507,0.712
LOU-NH91,0.752,0.739,0.705,0.711,0.341,0.323,0.325,0.361,0.747,0.782,0.791,0.732,0.763,0.784,0.836,0.79,0.75,0.341,0.77
NCI-H596,–,–,0.614,0.334,1.15,0.948,0.84,1.18,1.3,1.11,1.26,0.929,1.2,1.09,1.17,1.02,1.29,1.15,1.29
NCI-H2405,0.651,0.647,0.485,0.565,0.77,0.817,0.513,0.751,1.12,1.08,1.21,0.921,1.05,0.79,0.828,0.759,0.75,0.67,0.821
PC-3 [JPC-3],0.633,0.596,0.635,0.504,0.739,0.776,0.659,0.421,0.504,0.466,0.511,0.461,0.437,0.916,0.825,0.797,0.529,0.63,0.775
NCI-H1666,0.65,0.696,0.808,0.874,0.993,0.874,0.677,0.701,0.626,0.706,0.486,0.495,0.536,0.923,0.858,0.7,0.657,0.976,0.795
NCI-H2085,0.499,0.902,0.578,0.367,0.415,0.41,0.449,0.487,0.75,0.751,0.75,0.779,0.778,1.03,0.938,0.928,0.972,0.476,0.878
NCI-H1734,0.691,0.704,0.595,0.594,0.183,0.237,0.201,0.194,1.12,1.06,1.07,0.955,1.05,0.623,0.646,0.488,0.559,0.285,0.642
LK-2,0.237,0.257,0.197,0.179,0.186,0.199,0.163,0.187,1.01,1.04,0.796,0.611,0.392,0.372,0.404,0.254,0.271,0.177,0.444
LXF-289,0.71,0.907,0.495,0.792,0.782,0.722,0.729,0.659,0.939,0.934,0.919,0.847,0.861,1.08,1.08,1.06,1.07,0.712,1.12
EMC-BAC-2,0.295,0.341,0.323,0.273,1.18,1.21,1.12,1.23,0.914,0.871,0.898,0.856,0.84,1.17,1.15,1.08,1.12,1.11,1.12
SW 900,0.412,0.559,0.518,0.571,0.175,0.169,0.131,0.149,–,–,–,–,–,0.63,0.583,0.627,0.683,0.163,0.587
LCLC-103H,0.465,0.486,0.375,0.37,1.04,1.07,1.01,0.872,–,–,–,–,–,0.758,0.902,0.678,0.771,1.09,0.849
NCI-H2342,0.518,0.587,0.509,0.659,0.674,0.706,0.629,0.637,–,–,–,–,–,0.447,0.516,0.506,0.549,0.633,0.457
